Test system: PC-3 multi-cell spheroids, viability
Assay: Anticancer human tumor PC-3 cell line growth inhibition [IpAb];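 further: spheroids exposed to compounds for 7 days before readout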;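 on viability, T/C: 100% = DMSO vehicle control wells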
Details: for IC50: curve of first compound; for viability, T/C: stronger effect = lower value; active means viability on the fitted dose curve at most 10% of control; inactive means the rest
Source text: Combinatorial screen of targeted agents with ipatasertib and abemaciclib in multi-cell type tumor spheroids
A high-throughput screen of multi-cell type tumor spheroids was designed to identify active combinations of targeted small molecules and ipatasertib or abemaciclib. Complex spheroids include a stromal component modeled by human endothelial cells (HUVEC) and fibroblasts modeled by human mesenchymal stem cells (MSCs). The concentration ranges selected for each drug and investigational agent were based upon clinically achievable concentrations if the clinical Cmax of the agent was known.
Compounds. The drugs and investigational agents: ipatasertib (NSC767898), abemaciclib(NSC768073), selumetinib (NSC741078), trametinib (758246), adavosertib (NSC754352), everolimus (NSC733504), sapanisertib (NSC764658), vemurafenib (NSC761431), venetoclax (NSC766270), copanlisib (NSC809693), apelisib (NSC765974), palbociblib (NSC758247), vemurafenib (NSC761431), dabrafenib (NSC764134), ravoxertinib (NSC781343), BMS-387032 (NSC767048), sotorasib (NSC818433), talazoparib (NSC767125) and afursertib (NSC778305), were obtained from the National Cancer Institute (NCI) Developmental Therapeutics Program Chemical Repository. The FDA-approved anticancer drug set is available from the NCI Developmental Therapeutics Program. […] The stock solutions were prepared in dimethyl sulfoxide (DMSO, Sigma-Aldrich, St. Louis, MO, cat. D2650) at 800-fold the tested concentration and stored at -70 degrees C prior to their use. All drugs and investigational agents were tested over a range starting from a high concentration at or near the clinical Cmax and decreasing in half-log increments. If the clinical Cmax for an agent had not been determined, the highest concentration tested was 10 microM.
NCI60 Cell Culture. NCI60 cell lines were obtained from the NCI Developmental Therapeutics Program Tumor Repository. For each lot of cells, the Repository performed Applied Biosystems AmpFLSTR Identifiler testing with PCR amplification to confirm consistency with the published Identifier STR profile for each cell line. Cells were kept in continuous culture for no more than 20 passages. The optimal seeding densities for each of the cell lines at each time point assessed were determined prior to performing the concentration response studies. Briefly, the NCI60 human tumor lines were grown as monolayers in RPMI 1640 medium supplemented with 10% FBS and 2 mmol/L L-glutamine.
An additional 9 lines were from the NCI60 cell line panel including MDA-MB-231 breast carcinoma, MDA-MB-468 breast carcinoma, MCF7 breast carcinoma, Hs578T breast carcinoma, MALME-3M melanoma, SK-MEL-2 melanoma, SK-OV-3 ovarian carcinoma, DU-145 prostate carcinoma, PC-3 prostate carcinoma, all cell lines along with major genetic alterations are listed on Table 2. Pooled donor human umbilical vein endothelial cells (HUVEC, Lonza, cat. CC-2519) and human mesenchymal stem cells (hMSC, Lonza, cat. PT-2501) were purchased from Lonza (Walkersville, MD).
PDMR cell lines were grown in complete medium (DC medium): Dulbecco's modified Eagle's medium (DMEM)/F12 supplemented with 5% fetal bovine serum (FBS), 2 mM L-glutamine, 100 U/mL penicillin and 100 µg/ml streptomycin, 0.4 µg/ml hydrocortisone, 10 ng/ml epidermal growth factor (EGF) recombinant human protein, 24 µg/mL adenine, and 0.1 mg/mL primocin. During culture from frozen stock vials, PDMR cells were cultured in the same medium containing 10 µM Y-27632 (see Table 3). The PDCs were cultured in complete DMEM/F12 media without 10 microM Y-27632 dihydrochloride for at least two passages prior to the screen. The pooled donor HUVEC and hMSC were cultured in endothelial cell growth medium 2 (PromoCell, Heidelberg, Germany, cat. C-22011) and mesenchymal stem cell growth medium 2 (PromoCell, cat. C-28009), respectively. For all experiments, HUVEC and hMSC were used at passages </=5.
[…]

C=CCn1c(=O)c2cnc(Nc3ccc(N4CCN(C)CC4)cc3)nc2n1-c1cccc(C(C)(C)O)n1 + CC(C)NCC(C(=O)N1CCN(c2ncnc3c2C(C)CC3O)CC1)c1ccc(Cl)cc1
active: viability, T/C (second compound 1 µM, first compound 10 µM) 11.5% | viability, T/C (second compound 3.16 µM, first compound 0.316 µM) 8.81% | viability, T/C (second compound 3.16 µM, first compound 1 µM) 7.7% | viability, T/C (second compound 3.16 µM, first compound 3.16 µM) 8.01% | viability, T/C (second compound 3.16 µM, first compound 10 µM) 7.89% | viability, T/C (second compound 10 µM, first compound 0.316 µM) 8.4% | viability, T/C (second compound 10 µM, first compound 1 µM) 6.86% | viability, T/C (second compound 10 µM, first compound 3.16 µM) 7.49% | viability, T/C (second compound 10 µM, first compound 10 µM) 7.22%
114 nM: IC50 (second compound 0.1 µM)
< 31.6 nM: IC50 (second compound 0.316 µM) | IC50 (second compound 1 µM) | IC50 (second compound 3.16 µM) | IC50 (second compound 10 µM)
inactive: viability, T/C (second compound 0.1 µM, first compound 0.0316 µM) 73.4% | viability, T/C (second compound 0.1 µM, first compound 0.1 µM) 48.6% | viability, T/C (second compound 0.1 µM, first compound 0.316 µM) 42.4% | viability, T/C (second compound 0.1 µM, first compound 1 µM) 20.5% | viability, T/C (second compound 0.1 µM, first compound 3.16 µM) 19.6% | viability, T/C (second compound 0.1 µM, first compound 10 µM) 21.1% | viability, T/C (second compound 0.316 µM, first compound 0.0316 µM) 41.3% | viability, T/C (second compound 0.316 µM, first compound 0.1 µM) 31.3% | viability, T/C (second compound 0.316 µM, first compound 0.316 µM) 15.4% | viability, T/C (second compound 0.316 µM, first compound 1 µM) 14.1% | viability, T/C (second compound 0.316 µM, first compound 3.16 µM) 13.8% | viability, T/C (second compound 0.316 µM, first compound 10 µM) 17.2% | viability, T/C (second compound 1 µM, first compound 0.0316 µM) 20.4% | viability, T/C (second compound 1 µM, first compound 0.1 µM) 16.2% | viability, T/C (second compound 1 µM, first compound 0.316 µM) 10.6% | viability, T/C (second compound 1 µM, first compound 1 µM) 9.67% | viability, T/C (second compound 1 µM, first compound 3.16 µM) 9.62% | viability, T/C (second compound 3.16 µM, first compound 0.0316 µM) 14.3% | viability, T/C (second compound 3.16 µM, first compound 0.1 µM) 11% | viability, T/C (second compound 10 µM, first compound 0.0316 µM) 13.1% | viability, T/C (second compound 10 µM, first compound 0.1 µM) 11.7%

Cn1cnc2c(F)c(Nc3ccc(Br)cc3Cl)c(C(=O)NOCCO)cc21 + CC(C)NCC(C(=O)N1CCN(c2ncnc3c2C(C)CC3O)CC1)c1ccc(Cl)cc1
inactive: viability, T/C (second compound 0.1 µM, first compound 0.00949 µM) 83.2% | viability, T/C (second compound 0.1 µM, first compound 0.03 µM) 73.6% | viability, T/C (second compound 0.1 µM, first compound 0.0949 µM) 88.3% | viability, T/C (second compound 0.1 µM, first compound 0.3 µM) 78.9% | viability, T/C (second compound 0.1 µM, first compound 0.949 µM) 70% | viability, T/C (second compound 0.1 µM, first compound 3 µM) 55.6% | viability, T/C (second compound 0.316 µM, first compound 0.00949 µM) 46.5% | viability, T/C (second compound 0.316 µM, first compound 0.03 µM) 45% | viability, T/C (second compound 0.316 µM, first compound 0.0949 µM) 47.3% | viability, T/C (second compound 0.316 µM, first compound 0.3 µM) 44.5% | viability, T/C (second compound 0.316 µM, first compound 0.949 µM) 45% | viability, T/C (second compound 0.316 µM, first compound 3 µM) 37.1% | viability, T/C (second compound 1 µM, first compound 0.00949 µM) 25.6% | viability, T/C (second compound 1 µM, first compound 0.03 µM) 27.1% | viability, T/C (second compound 1 µM, first compound 0.0949 µM) 24.1% | viability, T/C (second compound 1 µM, first compound 0.3 µM) 20.8% | viability, T/C (second compound 1 µM, first compound 0.949 µM) 19.9% | viability, T/C (second compound 1 µM, first compound 3 µM) 17.6% | viability, T/C (second compound 10 µM, first compound 0.00949 µM) 12.9% | viability, T/C (second compound 10 µM, first compound 0.03 µM) 12.2% | viability, T/C (second compound 10 µM, first compound 0.0949 µM) 11.5% | viability, T/C (second compound 10 µM, first compound 0.3 µM) 12.1% | viability, T/C (second compound 10 µM, first compound 0.949 µM) 11.4% | viability, T/C (second compound 10 µM, first compound 3 µM) 10.7%
< 9.49 nM: IC50 (second compound 0.316 µM) | IC50 (second compound 1 µM) | IC50 (second compound 3.16 µM) | IC50 (second compound 10 µM)
active: viability, T/C (second compound 3.16 µM, first compound 0.00949 µM) 8.45% | viability, T/C (second compound 3.16 µM, first compound 0.03 µM) 6.53% | viability, T/C (second compound 3.16 µM, first compound 0.0949 µM) 7.72% | viability, T/C (second compound 3.16 µM, first compound 0.3 µM) 7.02% | viability, T/C (second compound 3.16 µM, first compound 0.949 µM) 8% | viability, T/C (second compound 3.16 µM, first compound 3 µM) 6.09%
> 3000 nM: IC50 (second compound 0.1 µM)
